# Source: patent publication US8642774B2, “Compounds” (Boehringer Ingelheim International GmbH, priority 2011, dated 2014)
# Target: T1, human recombinant mGluR5 (Homo sapiens, UniProt P41594)
# T1 construct: expressed in transfected cells; host or cells: HEK 293 cell line, cultured with tetracycline, hygromycin and geneticin; tetracycline is withdrawn 3-7 days before the assay
# Experiment: positive modulation of mGluR5, calcium based FLIPR assay
# Format: cell-based
# Settings: EC50 of the modulation; HEK 293 cell line expressing human recombinant mGluR5; peak height of Ca fluorescence signal after glutamate at approx. 5% basal stimulation; read-out: EC50
# Procedure, shortened: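 HEK 293 cells expressing human recombinant mGluR5, tetracycline-free before assay, loaded with Calcium-4 dye in Ringer solution pH 7.4. Compounds (1% DMSO final) added for 5 min, then glutamate at about 5% of maximal effect; FLIPR peak Ca signal scaled between 1% DMSO (100%) and 10 μM CDPPB (200%) controls, EC50 by nonlinear regression.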
# T1 sequence (P41594 21-1212): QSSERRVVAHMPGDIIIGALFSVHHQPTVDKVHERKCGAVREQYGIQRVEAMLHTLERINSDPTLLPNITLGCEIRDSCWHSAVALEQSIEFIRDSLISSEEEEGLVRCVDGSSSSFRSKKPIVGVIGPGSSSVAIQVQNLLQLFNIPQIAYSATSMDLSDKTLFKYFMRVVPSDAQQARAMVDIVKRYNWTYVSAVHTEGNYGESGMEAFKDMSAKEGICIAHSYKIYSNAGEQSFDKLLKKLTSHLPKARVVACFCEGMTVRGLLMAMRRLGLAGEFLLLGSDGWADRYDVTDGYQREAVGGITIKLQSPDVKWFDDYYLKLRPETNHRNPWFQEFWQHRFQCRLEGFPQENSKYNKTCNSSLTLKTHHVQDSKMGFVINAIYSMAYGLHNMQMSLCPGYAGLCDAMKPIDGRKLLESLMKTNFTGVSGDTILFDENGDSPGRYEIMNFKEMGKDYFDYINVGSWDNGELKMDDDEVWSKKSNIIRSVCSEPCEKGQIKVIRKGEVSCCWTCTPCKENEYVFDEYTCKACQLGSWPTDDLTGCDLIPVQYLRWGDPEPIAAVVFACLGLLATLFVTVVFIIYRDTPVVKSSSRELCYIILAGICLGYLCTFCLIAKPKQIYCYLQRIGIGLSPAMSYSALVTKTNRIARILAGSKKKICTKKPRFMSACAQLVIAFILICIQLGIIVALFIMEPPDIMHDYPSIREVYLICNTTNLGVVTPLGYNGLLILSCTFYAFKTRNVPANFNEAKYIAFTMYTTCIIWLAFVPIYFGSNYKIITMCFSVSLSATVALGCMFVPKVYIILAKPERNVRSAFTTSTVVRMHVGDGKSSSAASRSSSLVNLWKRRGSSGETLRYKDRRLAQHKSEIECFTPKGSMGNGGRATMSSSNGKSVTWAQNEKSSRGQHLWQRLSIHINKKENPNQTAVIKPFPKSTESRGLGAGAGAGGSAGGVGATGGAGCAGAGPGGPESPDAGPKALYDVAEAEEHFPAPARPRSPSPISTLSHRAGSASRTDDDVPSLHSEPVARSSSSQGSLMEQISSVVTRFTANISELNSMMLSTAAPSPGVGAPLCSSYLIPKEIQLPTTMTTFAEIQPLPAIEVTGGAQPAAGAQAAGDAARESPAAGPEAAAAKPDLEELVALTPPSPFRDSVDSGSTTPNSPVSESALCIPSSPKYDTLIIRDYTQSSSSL
row,SMILES,EC50 [nM]
1,CCc1nnc(N2CCN(C(=O)Cn3nc(-c4ccc(F)cc4)nc3-c3ccc(F)cc3)CC2)o1 [Example 7.03.044.],96
2,Cc1nnc(N2CCN(C(=O)Cn3nc(-c4ccc(F)cc4)nc3-c3ccc(F)cc3)CC2)o1 [Example 7.03.045.],155
3,O=C(Cn1nc(-c2ccc(F)cc2)nc1-c1ccc(F)cc1)N1CCN(C2=NCCS2)CC1 [Example 7.03.046.],356
4,O=C(Cn1nc(-c2ccc(F)cc2)nc1-c1ccc(F)cc1)N1CCN(c2nc3ccccc3o2)CC1 [Example 7.03.047.],140
5,Nc1nc2c(s1)CCN(C(=O)Cn1nc(-c3ccccc3)nc1-c1ccccc1)CC2 [Example 7.03.049.],1440
6,COc1ccc(-c2nc(-c3ccccc3)n(CC(=O)N3Cc4nc(C)sc4C3)n2)cc1 [Example 7.03.050.],338
7,COc1ccc(-c2nc(-c3ccccc3)n(CC(=O)N3CCc4nc(N)sc4CC3)n2)cc1 [Example 7.03.051.],282
8,COc1ccc(-c2nc(-c3ccccc3)n(CC(=O)N3CCc4nc(C)oc4C3)n2)cc1 [Example 7.03.052.],323
9,COc1ccc(-c2nc(-c3ccc(F)cc3)n(CC(=O)N3CCc4nc(N)sc4CC3)n2)cc1 [Example 7.03.055.],100
10,COc1ccc(-c2nc(-c3ccc(F)cc3)n(CC(=O)N3CCc4nc(C)sc4CC3)n2)cc1 [Example 7.03.056.],63
11,COc1ccc(-c2nc(-c3ccc(F)cc3)nn2CC(=O)N2CCc3nc(C)sc3CC2)cc1 [Example 7.03.058.],117
12,Cc1nc2c(s1)CN(C(=O)Cn1nc(-c3ccc(F)c(C)c3)nc1C1CCCCC1)C2 [Example 7.03.060.],255
13,Cc1cc(-c2nc(C3CCCCC3)n(CC(=O)N3CCc4nc(N)sc4CC3)n2)ccc1F [Example 7.03.061.],369
14,Cc1nc2c(s1)CCN(C(=O)Cn1nc(-c3ccc(F)c(C)c3)nc1-c1ccccc1)CC2 [Example 7.03.063.],60
15,Cc1nc2c(o1)CN(C(=O)Cn1nc(-c3ccc(F)c(C)c3)nc1-c1ccccc1)CC2 [Example 7.03.064.],86
16,Cc1cc(-c2nc(-c3ccccc3)n(CC(=O)N3CCc4nc(N)sc4CC3)n2)ccc1F [Example 7.03.065.],95
17,Cc1nc2c(s1)CN(C(=O)Cn1nc(-c3ccc(F)c(C)c3)nc1-c1ccccc1)C2 [Example 7.03.066.],71
18,COc1cc(-c2nc(-c3ccc(F)cc3)nn2CC(=O)N2CCc3nc(C)sc3CC2)ccc1F [Example 7.03.069.],574
19,CCCc1nc(-c2ccc(F)c(C)c2)nn1CC(=O)N1Cc2nc(C)sc2C1 [Example 7.03.071.],1170
20,Cc1cc(-c2nc(C(C)C)n(CC(=O)N3CCc4nc(N)sc4CC3)n2)ccc1F [Example 7.03.073.],1170
21,Cc1cc(-c2nc(C(C)C)n(CC(=O)N3CC=C(c4ccccn4)CC3)n2)ccc1F [Example 7.03.075.],1090
22,CCc1nc(-c2ccc(F)c(C)c2)nn1CC(=O)N1CCc2nc(C)sc2CC1 [Example 7.03.081.],413
23,CCc1nc(-c2ccc(F)c(C)c2)nn1CC(=O)N1CCc2nc(N)sc2CC1 [Example 7.03.082.],1890

row,SMILES,EC50 [nM]
1,Cc1cc(-c2nc(-c3ccc(F)c(C)c3)n(CC(=O)N3CCc4nc(N)sc4CC3)n2)ccc1F [Example 7.03.083.],64
2,CCC(C)c1nc(-c2ccc(F)c(C)c2)nn1CC(=O)N1CCc2nc(N)sc2CC1 (stereo not shown) [Example 7.03.085.],644
3,CCC(C)c1nc(-c2ccc(F)c(C)c2)nn1CC(=O)N1CCc2nc(C)sc2CC1 (stereo not shown) [Example 7.03.086.],379
4,Cc1nc2c(s1)CCN(C(=O)Cn1nc(-c3ccc(F)c(C)c3)nc1C)CC2 [Example 7.03.087.],647
5,COc1cc(-c2nc(-c3ccc(F)cc3)n(CC(=O)N3CCc4nc(N)sc4CC3)n2)ccc1F [Example 7.03.088.],60
6,Cc1nc2c(s1)CCN(C(=O)Cn1nc(-c3ccc(F)c(C)c3)nc1C1CCC(C)CC1)CC2 (stereo not shown) [Example 7.03.090.],420
7,Cc1nc2c(s1)CCN(C(=O)Cn1nc(-c3ccc(F)c(C)c3)nc1C1CCCCC1C)CC2 (stereo not shown) [Example 7.03.093.],433
8,Cc1cc(-c2nc(C3CCCC(C)C3)n(CC(=O)N3CCc4nc(N)sc4CC3)n2)ccc1F (stereo not shown) [Example 7.03.095.],610
9,Cc1nc2c(s1)CCN(C(=O)Cn1nc(-c3ccc(F)c(C)c3)nc1C1CCCC(C)C1)CC2 (stereo not shown) [Example 7.03.096.],355
10,Cc1nc2c(s1)CCN(C(=O)Cn1nc(-c3ccc(F)c(C)c3)nc1C1CCC(F)(F)CC1)CC2 [Example 7.03.097.],502
11,Cc1nc2c(s1)CCN(C(=O)Cn1nc(-c3ccc(F)c(C)c3)nc1CC(C)C)CC2 [Example 7.03.098.],226
12,Cc1cc(-c2nc(CC(C)C)n(CC(=O)N3CCc4nc(N)sc4CC3)n2)ccc1F [Example 7.03.099.],269
13,CCCCc1nc(-c2ccc(F)c(C)c2)nn1CC(=O)N1CCN(c2cccc(OC)c2)C(=O)C1 [Example 7.03.100.],302
14,CCCCc1nc(-c2ccc(F)c(C)c2)nn1CC(=O)N1Cc2nc(C)sc2C1 [Example 7.03.101.],382
15,CCCCc1nc(-c2ccc(F)c(C)c2)nn1CC(=O)N1CCc2nc(N)sc2CC1 [Example 7.03.102.],293
16,CCCCc1nc(-c2ccc(F)c(C)c2)nn1CC(=O)N1CCc2nc(C)sc2CC1 [Example 7.03.103.],113
17,COc1cccc(N2CCN(C(=O)Cn3nc(-c4ccc(F)c(C)c4)nc3C3CCCC3)CC2=O)c1 [Example 7.03.104.],679
18,Cc1cc(-c2nc(C3CCCC3)n(CC(=O)N3CCc4nc(N)sc4CC3)n2)ccc1F [Example 7.03.106.],251
19,CCCCCc1nc(-c2ccc(F)c(C)c2)nn1CC(=O)N1CCc2nc(C)sc2CC1 [Example 7.03.110.],55
20,CCCCCc1nc(-c2ccc(F)c(C)c2)nn1CC(=O)N1CCc2nc(N)sc2CC1 [Example 7.03.111.],90
21,Cc1cc(-c2nc(CCC(C)C)n(CC(=O)N3CCc4nc(N)sc4CC3)n2)ccc1F [Example 7.03.112.],147
22,Cc1nc2c(s1)CN(C(=O)Cn1nc(-c3ccc(F)c(C)c3)nc1CCC(C)C)C2 [Example 7.03.113.],340
23,Nc1nc2c(s1)CCN(C(=O)Cn1nc(-c3ccc(F)cn3)nc1-c1ccc(F)cc1)CC2 [Example 7.03.115.],231

# Further compounds by falling EC50, results first:
row,EC50 [nM],SMILES
1,1710,Cc1cc(-c2nc(C(C)C)n(CC(=O)N3CC=C(c4ncccn4)CC3)n2)ccc1F [Example 7.03.076.]
2,1680,Cc1nc2c(s1)CN(C(=O)Cn1nc(-c3ccc(F)c(C)c3)nc1C1CCC(C)CC1)C2 (stereo not shown) [Example 7.03.091.]
3,1160,Cc1cc(-c2nc(C3CCC(C)CC3)n(CC(=O)N3CCc4nc(N)sc4CC3)n2)ccc1F (stereo not shown) [Example 7.03.092.]
4,1140,COc1cnc(C2=CCN(C(=O)Cn3nc(-c4ccc(F)c(C)c4)nc3C(C)C)CC2)nc1 [Example 7.03.080.]
5,1090,Cc1cc(-c2nc(C3CCCCC3C)n(CC(=O)N3CCc4nc(N)sc4CC3)n2)ccc1F (stereo not shown) [Example 7.03.094.]
6,870,Cc1nc2c(s1)CN(C(=O)Cn1nc(-c3ccc(F)c(C)c3)nc1C1CCCC1)C2 [Example 7.03.105.]
7,803,Cc1ccnc(C2=CCN(C(=O)Cn3nc(-c4ccc(F)c(C)c4)nc3C(C)C)CC2)c1 [Example 7.03.078.]
8,545,COc1ccnc(C2=CCN(C(=O)Cn3nc(-c4ccc(F)c(C)c4)nc3C(C)C)CC2)c1 [Example 7.03.079.]
9,540,Cc1nc2c(o1)CN(C(=O)Cn1nc(-c3ccc(F)c(C)c3)nc1C1CCCCC1)CC2 [Example 7.03.059.]
10,500,COc1cc(C2=CCN(C(=O)Cn3nc(-c4ccc(F)c(C)c4)nc3C(C)C)CC2)ncn1 [Example 7.03.077.]
11,457,CCCc1nc(-c2ccc(F)c(C)c2)nn1CC(=O)N1CCc2nc(C)sc2CC1 [Example 7.03.070.]
12,422,CCCCCc1nc(-c2ccc(F)c(C)c2)nn1CC(=O)N1CCN(c2cccc(OC)c2)C(=O)C1 [Example 7.03.109.]
13,407,CCCc1nc(-c2ccc(F)c(C)c2)nn1CC(=O)N1CCc2nc(N)sc2CC1 [Example 7.03.072.]
14,321,Cc1nc2c(s1)CCN(C(=O)Cn1nc(-c3ccc(F)c(C)c3)nc1C(C)C)CC2 [Example 7.03.074.]
15,242,COc1ccc(-c2nc(-c3ccccc3)n(CC(=O)N3CCN(c4ccccn4)C(=O)C3)n2)cc1 [Example 7.03.053.]
16,201,CCCCCc1nc(-c2ccc(F)c(C)c2)nn1CC(=O)N1Cc2nc(C)sc2C1 [Example 7.03.108.]
17,187,COc1ccc(-c2nc(-c3ccc(F)cc3)nn2CC(=O)N2CCc3nc(N)sc3CC2)cc1 [Example 7.03.057.]
18,155,Cc1nc2c(s1)CCN(C(=O)Cn1nc(-c3ccc(F)c(C)c3)nc1C1CCCCC1)CC2 [Example 7.03.062.]
19,102,Cc1nc2c(s1)CCN(C(=O)Cn1nc(-c3ccc(F)c(C)c3)nc1CCC(C)C)CC2 [Example 7.03.114.]
20,97,COc1ccc(-c2nc(-c3ccccc3)n(CC(=O)N3CCc4nc(C)sc4CC3)n2)cc1 [Example 7.03.054.]
21,88,O=C(Cn1nc(-c2ccc(F)cc2)nc1-c1ccc(F)cc1)N1CCN(c2nccs2)CC1 [Example 7.03.048.]
22,71,COc1cc(-c2nc(-c3ccc(F)cc3)n(CC(=O)N3CCc4nc(C)sc4CC3)n2)ccc1F [Example 7.03.089.]
23,63,Cc1nc2c(s1)CCN(C(=O)Cn1nc(-c3ccc(F)c(C)c3)nc1C1CCCC1)CC2 [Example 7.03.107.]
24,52,Cc1nc2c(s1)CCN(C(=O)Cn1nc(-c3ccc(F)c(C)c3)nc1-c1ccc(F)c(C)c1)CC2 [Example 7.03.084.]
